Laboratory results taken from patent US11834401B2, “Treating and preventing diseases by modulating cell mechanics” (THE JOHNS HOPKINS UNIVERSITY, priority 2013, dated 2023).

Legend:
[1] = tested on: NLS-tdTomato expressing Dictyostelium cells
Method: NLS-tdTomato expressing Dictyostelium cells were challenged with […] compounds from the ChemBridge Divert-SET library and imaged over three days. Raw data was segmented by CIMPAQ, a designed analytical platform, which rank ordered hits based on their cytokinesis or mitotic inhibitory activity, or lethality. Hits were confirmed through a dose-dependent secondary screening.
Ax3::NLS-tdTomato cells were plated on 384-well COP plates with a MicroFloSelect microplate dispenser (BioTek, Winooski, Vt.) at volumes of 80 μl with a cell concentration of 1000 cells/ml for the 24- and 48-hr time points and at the same volume with a cell concentration of 220 cells/ml for the 72-hr time point. Each plate contained four rows of untreated cells with 0.2% DMSO. For the remaining wells, […] of each small molecule maintained at the Johns Hopkins ChemCORE facility, was added, with a final DMSO concentration of 0.2%. Almost half of the ChemBridge Divert-SET library, which is a 50,000 compound chemical diversity library, was screened over a three-day period on a Becton Dickinson Pathway 855 Bioimager System using a 20× objective (NA 0.75). Each image consisted of a montage of four images collected around the center of the well, resulting in a total size of 1344×1024 pixels per image.
Secondary chemical screening was carried out in quadruplicate, with identical culturing conditions as to the primary screen. 14 mM stocks of each compounds dissolved in 100% DMSO were diluted to the following final concentrations: […], 3.5 nM, 35 nM, 350 nM, 3.5 μM, and 35 μM.
Raw image files from both the primary and secondary screening were processed through CIMPAQ (FIGS. 9E and 9F). The single wavelength fluorescence images were converted from 16-bit format to 8-bit format. The MATLAB Image Processing Toolbox was utilized to segment the images in order to identify the nuclei and cytoplasm. The number of nuclei within each segmented cell was quantified to produce a histogram of nuclei per cell for each image (FIG. 9G). All segmented cells that were coincident with the image edge were disregarded.
Image analysis using CIMPAQ: From the histogram of nuclei per cell count, the ratio of the number of multinucleate cells to the number of mononucleate cells and the ratio of the number of binucleate cells to the number of mononucleate cells were computed. Multinucleate cells are defined as cells that contain >2 nuclei. The distribution of both ratios across multiple wells were simultaneously visualized using a scatter plot, with the ratio of multinucleate cells to mononucleate cells plotted on the x-axis and the ratio of binucleate cells to mononucleate cells plotted on the y-axis (FIGS. 9H and 9I). Other information such as the average number of nuclei per cell, the mean nuclear area, and the normalized histogram with respect to total cell number were also computed.
Hit identification using CIMPAQ: Compounds that generate an increase in the number of multinucleate (>2 nuclei/cell) cells are considered cytokinesis inhibitors. Because nearly all cultured cells, including Dictyostelium, have a low background (typically <5% for WT) of non-mononucleate cells, CIMPAQ spreads the data for each sample by determining the ratio (bi:mono) of binucleate (2 nuclei/cell) to mononucleate cells and the ratio (multi:mono) of multinucleate (>2 nuclei/cell) to mononucleate cells. These two ratios then define a set of Cartesian coordinates, describing the effect of each compound on a given cell-line. The coordinates for each compound are plotted on a two-dimensional graph. CIMPAQ fits the control data to a two-dimensional Gaussian distribution (FIG. 9H) and determines the contour lines for two standard deviations (2SD), 3SD, etc. from the control mean (FIG. 9I).
Hit compounds are rank-ordered based on how many SDs away they are from the untreated wells.

[2] = biological target: T1, human myosin IIA (Homo sapiens, UniProt P35579); assay: In vitro myosin assembly assay; type: biochemical; conditions: n=3
T1 construct: human myosin IIA (residues 1722-1960); 6xHis (N); mCherry (N); made in house; host or cells: E. coli BL-21 Star (DE3)
Source text: (§1) The sedimentation assays were used to assess myosin II assembly in cells. The assembly assay used purified proteins (N-terminal 6×His tag (SEQ ID NO: 1), fused to the mCherry fluorophore, fused to the assembly domains of Dictyostelium myosin II (residues 1533-1823), human myosin IIA (residues 1722-1960), and human myosin IIB (residues 1729-1976), and 6×His-tagged (SEQ ID NO: 1) fused Dictyostelium 14-3-3). Purified chicken nonmuscle IIB heavy meromyosin (HMM) was used for in vitro motility.
(§2) Bacterial expression plasmids coding for an N-terminal 6×His tag (SEQ ID NO: 1), fused to the mCherry fluorophore, fused to the assembly domains of Dictyostelium myosin II (residues 1533-1823), human myosin IIA (residues 1722-1960), or human myosin IIB (residues 1729-1976) were generated using standard cloning techniques.
(§3) In vitro assembly of myosin was conducted according to the method of Zhou et al, 2010 (Zhou Q et al., 2010), with a number of modifications. The protein concentration for each species in the tube was increased to […] to ensure that the smaller protein was adequately visible by Coomassie Blue staining, and the incubation time and temperature was adjusted to 30 min at the physiological temperature for each myosin species (22° C. for Dictyostelium myosin, 37° C. for human myosins). These temperatures were also used during the centrifugation step.

[3] = biological target: T2, human myosin IIB (Homo sapiens, UniProt P35580); assay: In vitro myosin assembly assay; type: biochemical; conditions: n=3
T2 construct: human myosin IIB (residues 1729-1976); 6xHis (N); mCherry (N); made in house; host or cells: E. coli BL-21 Star (DE3)
Source text: as §1, §2, §3

[4] = tested on: microtubule; assay: Microtubule structure; type: cell-based

T2 sequence (P35580 1729-1976): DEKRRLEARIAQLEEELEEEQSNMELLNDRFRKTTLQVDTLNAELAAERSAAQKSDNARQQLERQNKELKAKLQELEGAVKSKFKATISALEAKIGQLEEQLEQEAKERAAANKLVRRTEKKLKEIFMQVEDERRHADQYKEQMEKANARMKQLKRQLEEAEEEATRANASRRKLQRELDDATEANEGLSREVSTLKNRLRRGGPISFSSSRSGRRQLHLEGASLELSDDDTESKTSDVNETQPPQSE
T1 sequence (P35579 1722-1960): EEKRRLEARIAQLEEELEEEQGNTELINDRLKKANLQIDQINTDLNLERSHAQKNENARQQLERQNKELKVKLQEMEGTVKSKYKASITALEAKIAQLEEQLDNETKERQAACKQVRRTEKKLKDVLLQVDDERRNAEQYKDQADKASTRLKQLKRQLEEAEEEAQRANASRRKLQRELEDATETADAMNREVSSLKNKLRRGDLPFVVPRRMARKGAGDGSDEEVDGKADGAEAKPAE

Row | SMILES | cytokinesis inhibition / cellular effect of a single component ([1]; compound alone) | in vitro assembly vs DMSO control [2] | in vitro assembly vs DMSO control [3] | microtubule structure [4] | lethality to Dictyostelium cells ([1]; 5000 nM)
1 | Nc1ccc(Cl)c(Cl)c1 [3,4-DCA, 3,4-dichloroaniline] | limited cellular effect | unaffected | unaffected | neither 3,4-DCA nor 4-HAP affected microtubule structure | 
2 | CC(=O)c1ccc(O)cc1 [4-HAP, 4-hydroxyacetophenone] |  | unaffected | unaffected | neither 3,4-DCA nor 4-HAP affected microtubule structure | lethal
